Converted amounts (≈) assume the structure as drawn. The source made the active and inactive calls. The calls are words filed in the database; no cut-off is given here.
How the values were obtained:
[1] = AUC (0 to t) in Balb/c mouse at 1 mg/kg, iv measured after 5 mins by LC-MS/MS analysis; assay type: ADME, organism-based; set-up: time 5 min, dose 1 mg/kg, route iv; settings: in vivo
[2] = Cmax in Sprague-Dawley rat at 9 mg/kg, po measured after 12 hrs by LC-MS/MS analysis; assay type: ADME, organism-based; set-up: time 12 hrs, dose 9 mg/kg, route po; settings: in vivo
[3] = Induction of SHP gene expression in C57BL/6J mouse ileum assessed as fold increase at 3 mg/kg, po measured after 4 hr by RT-qPCR analysis relative to control; assay type: functional
Bile acid receptor [4] = target: T1, Bile acid receptor (Homo sapiens, UniProt Q96RI1); assay: Agonist activity at human GAL4-FXR-LBD expressed in HEK293T cells assessed as transcriptional activity measured after 16 to 20 hrs by luciferase reporter gene assay; assay type: cell-based
T1 sequence (Q96RI1 whole entry): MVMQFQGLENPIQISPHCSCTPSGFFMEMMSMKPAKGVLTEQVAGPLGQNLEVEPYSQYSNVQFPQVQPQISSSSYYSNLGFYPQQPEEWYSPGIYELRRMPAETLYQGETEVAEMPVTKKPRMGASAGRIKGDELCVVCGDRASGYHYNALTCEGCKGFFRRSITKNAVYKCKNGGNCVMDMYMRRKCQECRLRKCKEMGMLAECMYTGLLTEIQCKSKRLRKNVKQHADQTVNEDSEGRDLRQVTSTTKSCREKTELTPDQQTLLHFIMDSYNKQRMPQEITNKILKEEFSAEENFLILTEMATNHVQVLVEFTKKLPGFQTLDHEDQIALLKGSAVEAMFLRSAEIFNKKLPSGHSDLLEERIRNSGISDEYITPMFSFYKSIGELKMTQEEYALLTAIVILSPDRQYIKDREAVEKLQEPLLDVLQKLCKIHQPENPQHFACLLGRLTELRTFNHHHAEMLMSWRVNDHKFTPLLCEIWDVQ

[5] = Induction of FGF15 gene expression in C57BL/6J mouse ileum assessed as fold increase at 3 mg/kg, po measured after 1 hr by RT-qPCR analysis relative to control; assay type: functional
[6] = Induction of SHP gene expression in C57BL/6J mouse liver assessed as fold increase at 3 mg/kg, po measured after 1 hr by RT-qPCR analysis; assay type: functional
[7] = Tmax in Beagle dog at 3 mg/kg, po measured after 12 hrs by LC-MS/MS analysis; assay type: ADME, organism-based, Canis lupus familiaris; settings: in vivo
[8] = Induction of BSEP gene expression in C57BL/6J mouse liver assessed as fold increase at 3 mg/kg, po measured after 12 hr by RT-qPCR analysis; assay type: functional
[9] = Oral bioavailability in Sprague-Dawley rat at 9 mg/kg measured after 12 hrs by LC-MS/MS analysis; assay type: ADME, organism-based; settings: in vivo
[10] = Half life in Sprague-Dawley rat at 3 mg/kg, iv measured after 5 mins by LC-MS/MS analysis; assay type: ADME, organism-based; settings: in vivo
[11] = Metabolic stability in rat liver microsomes assessed as half life at 1 uM measured upto 120 mins by UPLC/MS/MS analysis; assay type: ADME, Microsome
Bile acid receptor [12] = target: T1, Bile acid receptor; assay: Agonist activity at GST-tagged human FXR-LBD in presence of luorescein-SRC2-2 coactivator peptide by TR-FRET assay
[13] = Tmax in Balb/c mouse at 5 mg/kg, po measured after 12 hrs by LC-MS/MS analysis; assay type: ADME, organism-based; settings: in vivo
[14] = AUC (0 to t) in Beagle dog at 1 mg/kg, iv measured after 5 mins by LC-MS/MS analysis; assay type: ADME, organism-based, Canis lupus familiaris; set-up: dose 1 mg/kg, time 5 min, route iv; settings: in vivo
[15] = AUC (0 to t) in Balb/c mouse at 5 mg/kg, po measured after 12 hrs by LC-MS/MS analysis; assay type: ADME, organism-based; set-up: dose 5 mg/kg, time 12 hrs, route po; settings: in vivo
Mus musculus [16] = assay: Anti-nonalcoholic steatohepatitis activity against ccl4-induced C57BL/6J mouse model assessed as reduction total cholesterol in serum at 1 to 10 mg/kg, po qd treated for 28 days; assay type: functional, organism-based; settings: dose 1-10 mg/kg, time 28.0 day
[17] = Clearance in Balb/c mouse at 1 mg/kg, iv measured after 5 mins by LC-MS/MS analysis; assay type: ADME, organism-based; settings: in vivo
Mus musculus [18] = assay: Anti-nonalcoholic steatohepatitis activity against ccl4-induced C57BL/6J mouse model assessed as improvement in liver inflammation at 1 to 10 mg/kg, po qd treated for 28 days; assay type: functional, organism-based; settings: dose 1-10 mg/kg, time 28.0 day
[19] = AUC (0 to t) in Sprague-Dawley rat at 3 mg/kg, iv measured after 5 mins by LC-MS/MS analysis; assay type: ADME, organism-based; set-up: time 5 min, dose 3 mg/kg, route iv; settings: in vivo
[20] = Half life in Balb/c mouse at 5 mg/kg, po measured after 12 hrs by LC-MS/MS analysis; assay type: ADME, organism-based; settings: in vivo
[21] = Cmax in Beagle dog at 3 mg/kg, po measured after 12 hrs by LC-MS/MS analysis; assay type: ADME, organism-based, Canis lupus familiaris; set-up: time 12 hrs, dose 3 mg/kg, route po; settings: in vivo
Mus musculus [22] = assay: Anti-nonalcoholic steatohepatitis activity against ccl4-induced C57BL/6J mouse model assessed as clearance of liver steatosis at 10 mg/kg, po qd treated for 28 days; assay type: functional; settings: time 28 day
[23] = Clearance in Beagle dog at 1 mg/kg, iv measured after 5 mins by LC-MS/MS analysis; assay type: ADME, organism-based, Canis lupus familiaris; settings: in vivo
[24] = Oral bioavailability in Balb/c mouse at 5 mg/kg measured after 12 hrs by LC-MS/MS analysis; assay type: ADME, organism-based; settings: in vivo
[25] = Cmax in Balb/c mouse at 5 mg/kg, po measured after 12 hrs by LC-MS/MS analysis; assay type: ADME, organism-based; set-up: dose 5 mg/kg, time 12 hrs, route po; settings: in vivo
[26] = Metabolic stability in human liver microsomes assessed as half life at 1 uM measured upto 120 mins by UPLC/MS/MS analysis; assay type: ADME, Microsome
Mus musculus [27] = assay: Anti-nonalcoholic steatohepatitis activity against ccl4-induced C57BL/6J mouse model assessed as decrease in ALT level in liver at 1 to 10 mg/kg, po qd treated for 28 days; assay type: functional, organism-based; settings: dose 1-10 mg/kg, time 28.0 day
[28] = Volume of distribution at steady state in Beagle dog at 1 mg/kg, iv measured after 5 mins by LC-MS/MS analysis; assay type: ADME, organism-based, Canis lupus familiaris; settings: in vivo, read-out: Vdss
[29] = Half life in Beagle dog at 1 mg/kg, iv measured after 5 mins by LC-MS/MS analysis; assay type: ADME, organism-based, Canis lupus familiaris; settings: in vivo
[30] = Solubility of the compound in PBS buffer at pH 7.4; assay type: physicochemical
[31] = Volume of distribution at steady state in Balb/c mouse at 1 mg/kg, iv measured after 5 mins by LC-MS/MS analysis; assay type: ADME, organism-based; settings: in vivo, read-out: Vdss
[32] = Metabolic stability in dog liver microsomes assessed as half life at 1 uM measured upto 120 mins by UPLC/MS/MS analysis; assay type: ADME, Canis lupus familiaris, Microsome
[33] = Volume of distribution at steady state in Sprague-Dawley rat at 3 mg/kg, iv measured after 5 mins by LC-MS/MS analysis; assay type: ADME, organism-based; settings: in vivo
[34] = AUC (0 to t) in Beagle dog at 3 mg/kg, po measured after 12 hrs by LC-MS/MS analysis; assay type: ADME, organism-based, Canis lupus familiaris; set-up: dose 3 mg/kg, time 12 hrs, route po; settings: in vivo
[35] = Drug metabolism in dog assessed as taurine/glycine conjugates in plasma at 50 mg/kg, po; assay type: ADME, organism-based, Canis lupus familiaris; settings: in vivo
Mus musculus [36] = assay: Anti-nonalcoholic steatohepatitis activity against ccl4-induced C57BL/6J mouse model assessed as decrease in AST level in liver at 1 to 10 mg/kg, po qd treated for 28 days; assay type: functional, organism-based; settings: dose 1-10 mg/kg, time 28.0 day
[37] = Induction of FGF15 gene expression in C57BL/6J mouse ileum assessed as fold increase at 3 mg/kg, po measured after 4 hr by RT-qPCR analysis relative to control; assay type: functional
Mus musculus [38] = assay: Anti-nonalcoholic steatohepatitis activity against ccl4-induced C57BL/6J mouse model assessed as improvement in fibrosis at 1 to 10 mg/kg, po qd treated for 28 days; assay type: functional, organism-based; settings: dose 1-10 mg/kg, time 28.0 day
[39] = AUC (0 to t) in Sprague-Dawley rat at 9 mg/kg, po measured after 12 hrs by LC-MS/MS analysis; assay type: ADME, organism-based; set-up: dose 9 mg/kg, time 12 hrs, route po; settings: in vivo
[40] = Half life in Balb/c mouse at 1 mg/kg, iv measured after 5 mins by LC-MS/MS analysis; assay type: ADME, organism-based; settings: in vivo
[41] = Half life in Beagle dog at 3 mg/kg, po measured after 12 hrs by LC-MS/MS analysis; assay type: ADME, organism-based, Canis lupus familiaris; settings: in vivo
[42] = Toxicity in C57BL/6J mouse assessed as change in body weight at 1 to 10 mg/kg, po qd; assay type: organism-based; settings: in vivo, dose 1-10 mg/kg
[43] = Metabolic stability in cynomolgus monkey liver microsomes assessed as half life at 1 uM measured upto 120 mins by UPLC/MS/MS analysis; assay type: ADME, Macaca fascicularis, Microsome
Mus musculus [44] = assay: Anti-nonalcoholic steatohepatitis activity against ccl4-induced C57BL/6J mouse model assessed as improvement in NAFLD activity score at 1 to 10 mg/kg, po qd treated for 28 days; assay type: functional, organism-based; settings: dose 1-10 mg/kg, time 28.0 day
[45] = Half life in Sprague-Dawley rat at 9 mg/kg, po measured after 12 hrs by LC-MS/MS analysis; assay type: ADME, organism-based; settings: in vivo
[46] = Tmax in Sprague-Dawley rat at 9 mg/kg, po measured after 12 hrs by LC-MS/MS analysis; assay type: ADME, organism-based; settings: in vivo

Structure (SMILES): COc1cc(C(=O)O)cc2sc(N3CCN(Cc4c(-c5c(Cl)cccc5Cl)noc4C4CC4)C[C@H]3C)nc12
- AUC(0-t) at 5 min [1]: 1010 ng·h/mL
- Cmax [2]: 1950 ng/mL
- fold change (FC) [3]: ~30
- EC50 (Bile acid receptor [4]): 18 nM
- fold change (FC) [5]: 7
- fold change (FC) [6]: 12
- Tmax [7]: 1 h
- fold change (FC) [8]: 4
- bioavailability [9]: 52.1%
- t1/2 [10]: 1.44 h
- half-life at 1 µM [11]: 116 min
- EC50 (Bile acid receptor [12]): 5 nM
- Tmax [13]: 15 min
- AUC(0-t) at 5 min [14]: 4590 ng·h/mL
- AUC(0-t) at 12 h [15]: 3880 ng·h/mL
- Activity (Mus musculus [16]): Active
- clearance [17]: 16.5 mL/min/kg
- Activity (Mus musculus [18]): Active
- AUC(0-t) at 5 min [19]: 2610 ng·h/mL
- half-life [20]: 91.2 min
- Cmax [21]: 1710 ng/mL
- Activity (Mus musculus [22]): 100%
- clearance [23]: 3.63 mL/min/kg
- bioavailability [24]: 77.2%
- Cmax [25]: 3610 ng/mL
- half-life at 1 µM [26]: 447 min
- Activity (Mus musculus [27]): Active
- Vd [28]: 0.823 L/kg
- half-life [29]: 244 min
- solubility [30]: 284 µM (≈ 163 µg/mL)
- Vd [31]: 0.53 L/kg
- half-life at 1 µM [32]: 237 min
- Vdss [33]: 29.3 L/kg
- AUC(0-t) at 12 h [34]: 8270 ng·h/mL
- Drug metabolism [35]: Metabolite_Notdetected
- Activity (Mus musculus [36]): Active
- fold change (FC) [37]: 5
- Activity (Mus musculus [38]): Active
- AUC(0-t) at 12 h [39]: 4120 ng·h/mL
- half-life [40]: 96 min
- half-life [41]: 594 min
- Activity [42]: Non-Toxic
- half-life at 1 µM [43]: 154 min
- Activity (Mus musculus [44]): Active
- half-life [45]: 126 min
- Tmax [46]: 30 min

Source: ChEMBL document CHEMBL5346955, “Discovery of HPG1860, a Structurally Novel Nonbile Acid FXR Agonist Currently in Clinical Development for the Treatment of Nonalcoholic Steatohepatitis” (J Med Chem, 2023)
